Laboratory results taken from patent publication US9624241B2 (Incyte Corporation, priority 2013, dated 2017).
pIC50: −log10 of the molar value. Like-named read-outs stand apart in the source and are kept apart here.

Key:
[1] = target: BRD4-BD2 (Homo sapiens (Human), UniProt O60885); assay: BRD4 AlphaScreen Assay (Example A2), BRD4-BD2; type: binding; details: read-out: BRD4 BD-2 enzyme IC50
Procedure: (§1) BRD4-BD1 and BRD4-BD2 assays were conducted in white 384-well polystyrene plate in a final volume of 40 μL for BD1 and 60 μL for BD2. Inhibitors were first serially diluted in DMSO and added to the plate wells before the addition of other reaction components. […] The assays were carried out at room temperature in the assay buffer (50 mM Tris-HCl, pH 7.5, 0.01% Tween-20, 0.01% BSA, 5 mM DTT), containing 50 nM Biotin-labeled tetra-acetylated histone H4 peptide (H4Ac4) and BRD4-BD1 or BRD4-BD2 protein at concentration less than 1 nM. […] After plate sealing, the plate was incubated in the dark at room temperature for 75 min. before reading on a PHERAstar FS plate reader (BMG Labtech). IC50 determination was performed by fitting the curve of percent control activity versus the log of the inhibitor concentration using the GraphPad Prism 5.0 software.

[2] = target: BRD4-BD1 (Homo sapiens (Human), UniProt O60885); assay: BRD4 AlphaScreen Assay (Example A2), BRD4-BD1; type: binding
Procedure: as §1

[3] = Assay A2, AlphaScreen, BRD4-BD2
[4] = Assay A2, AlphaScreen, BRD4-BD1, read-out: BRD4 BD-1 enzyme IC50

Row | pIC50 [1, 3] | pIC50 [2, 4] | Compound | pIC50 [1] | pIC50 [2]
1 | > 7.00 | > 7.00 | Cc1noc(C)c1-c1ccc2nc(C3CCN(C(=O)C4CC4)CC3)n3c2c1OC[C@@H]3c1ccccn1 [Example 111, (4S)-2-[1-(cyclopropylcarbonyl)piperidin-4-yl]-7-(3,5-dimethylisoxazol-4-yl)-4-pyridin-2-yl-4,5-dihydroimidazo[1,5,4-de][1,4]benzoxazine] | – | –
2 | > 7.00 | > 7.00 | CNC(=O)c1nc2ccc(-c3c(C)noc3C)c3c2n1[C@@H](c1ccccn1)CO3 [Example 95, (4S)-7-(3,5-Dimethylisoxazol-4-yl)-N-methyl-4-pyridin-2-yl-4,5-dihydroimidazo[1,5,4-de][1,4]benzoxazine-2-carboxamide] | – | –
3 | > 7.00 | > 7.00 | CCNc1nc2c(F)cc(-c3c(C)noc3C)c3c2n1C(c1cccnc1)CO3 (stereo not shown) [Example 158, 7-(3,5-Dimethylisoxazol-4-yl)-N-ethyl-9-fluoro-4-pyridin-3-yl-4,5-dihydroimidazo[1,5,4-de][1,4]benzoxazin-2-amine] | – | –
4 | > 7.00 | 6.00 to 7.00 | Cc1noc(C)c1-c1cc(-c2ccc(O)nc2)c2[nH]c(=O)n3c2c1OC[C@@H]3c1ccccn1 [Example 259, (4S)-7-(3,5-dimethylisoxazol-4-yl)-9-(6-hydroxypyridin-3-yl)-4-pyridin-2-yl-4,5-dihydroimidazo[1,5,4-de][1,4]benzoxazin-2(1H)-one] | – | –
5 | > 7.00 | > 7.00 | Cc1noc(C)c1-c1ccc2nc(C3CCN(C(=O)OC(C)(C)C)CC3)n3c2c1OC[C@@H]3c1ccccn1 [Example 100, tert-Butyl 4-[(4S)-7-(3,5-dimethylisoxazol-4-yl)-4-pyridin-2-yl-4,5-dihydroimidazo[1,5,4-de][1,4]benzoxazin-2-yl]piperidine-1-carboxylate] | – | –
6 | > 7.00 | > 7.00 | Cc1noc(C)c1-c1ccc2nc(C(N)=O)n3c2c1OC[C@@H]3c1ccccn1 [Example 96, (4S)-7-(3,5-Dimethylisoxazol-4-yl)-4-pyridin-2-yl-4,5-dihydroimidazo[1,5,4-de][1,4]benzoxazine-2-carboxamide] | – | –
7 | > 7.00 | 6.00 to 7.00 | Cc1noc(C)c1-c1cc(-c2cccnc2O)c2[nH]c(=O)n3c2c1OC[C@@H]3c1ccccn1 [Example 261, (4S)-7-(3,5-dimethylisoxazol-4-yl)-9-(2-hydroxypyridin-3-yl)-4-pyridin-2-yl-4,5-dihydroimidazo[1,5,4-de][1,4]benzoxazin-2(1H)-one] | – | –
8 | > 7.00 | > 7.00 | Cc1noc(C)c1-c1cc(C)c2[nH]c(=O)n3c2c1OCC3c1ccccc1 (stereo not shown) [Example 46, 7-(3,5-Dimethylisoxazol-4-yl)-9-methyl-4-phenyl-4,5-dihydroimidazo[1,5,4-de][1,4]benzoxazin-2(1H)-one] | – | –
9 | > 7.00 | 5.00 to 6.00 | Cc1noc(C)c1-c1cc(CN)c2[nH]c(=O)n3c2c1OC[C@@H]3c1ccccn1 [Example 137, (4S)-9-(Aminomethyl)-7-(3,5-dimethylisoxazol-4-yl)-4-pyridin-2-yl-4,5-dihydroimidazo[1,5,4-de][1,4]benzoxazin-2(1H)-one bis(trifluoroacetate)] | – | –
10 | 5.00 to 6.00 | 5.00 to 6.00 | Cc1noc(C)c1-c1cc(Br)c2[nH]c(=O)n3c2c1OCC3c1ccccn1 (single isomer, unassigned) [Example 267A, 9-bromo-7-(3,5-dimethylisoxazol-4-yl)-4-pyridin-2-yl-4,5-dihydroimidazo[1,5,4-de][1,4]benzoxazin-2(1H)-one] | – | –
11 | > 7.00 | > 7.00 | CC(=O)N1CCC=C(c2nc3ccc(-c4c(C)noc4C)c4c3n2[C@@H](c2ccccn2)CO4)C1 [Example 116, (4S)-2-(1-acetyl-1,2,5,6-tetrahydropyridin-3-yl)-7-(3,5-dimethylisoxazol-4-yl)-4-pyridin-2-yl-4,5-dihydroimidazo[1,5,4-de][1,4]benzoxazine] | – | –
12 | > 7.00 | > 7.00 | Cc1noc(C)c1-c1ccc2[nH]c(=O)n3c2c1OCC3(C)c1ccccn1 (stereo not shown) [Example 69, 7-(3,5-Dimethylisoxazol-4-yl)-4-methyl-4-pyridin-2-yl-4,5-dihydroimidazo[1,5,4-de][1,4]benzoxazin-2(1H)-one] | – | –
13 | > 7.00 | > 7.00 | Cc1noc(C)c1-c1cc(Br)c2[nH]c(=O)n3c2c1OCC3c1ccccc1 (stereo not shown) [Example 45, 9-Bromo-7-(3,5-Dimethylisoxazol-4-yl)-4-phenyl-4,5-dihydroimidazo[1,5,4-de][1,4]benzoxazin-2(1H)-one] | – | –
14 | > 7.00 | > 7.00 | Cc1noc(C)c1-c1cc(CO)c2[nH]c(=O)n3c2c1OCC3c1ccccn1 (stereo not shown) [Example 254, 7-(3,5-Dimethylisoxazol-4-yl)-9-(hydroxymethyl)-4-pyridin-2-yl-4,5-dihydroimidazo[1,5,4-de][1,4]benzoxazin-2(1H)-one] | – | –
15 | > 7.00 | > 7.00 | CC(=O)N1CCCC(c2nc3ccc(-c4c(C)noc4C)c4c3n2[C@@H](c2ccccn2)CO4)C1 (mixture of isomers) [Example 117, (4S)-2-(1-acetylpiperidin-3-yl)-7-(3,5-dimethylisoxazol-4-yl)-4-pyridin-2-yl-4,5-dihydroimidazo[1,5,4-de][1,4]benzoxazine (mixture of diastereomers)] | – | –
16 | > 7.00 | > 7.00 | Cc1noc(C)c1-c1ccc2nc(C3=CCN(C(=O)OC(C)(C)C)C3)n3c2c1OC[C@@H]3c1ccccn1 [Example 98, tert-Butyl 3-[(4S)-7-(3,5-dimethylisoxazol-4-yl)-4-pyridin-2-yl-4,5-dihydroimidazo[1,5,4-de][1,4]benzoxazin-2-yl]-2,5-dihydro-1H-pyrrole-1-carboxylate] | – | –
17 | > 7.00 | > 7.00 | CNC(=O)c1ncccc1C1COc2c(-c3c(C)noc3C)ccc3[nH]c(=O)n1c23 (stereo not shown) [Example 128, 3-[7-(3,5-Dimethylisoxazol-4-yl)-2-oxo-1,2,4,5-tetrahydroimidazo[1,5,4-de][1,4]benzoxazin-4-yl]-N-methylpyridine-2-carboxamide] | – | –
18 | > 7.00 | 6.00 to 7.00 | Cc1noc(C)c1-c1cc(-c2cn[nH]c2C)c2[nH]c(=O)n3c2c1OCC3c1ccccn1 (stereo not shown) [Example 257, 7-(3,5-dimethylisoxazol-4-yl)-9-(3-methyl-1H-pyrazol-4-yl)-4-pyridin-2-yl-4,5-dihydroimidazo[1,5,4-de][1,4]benzoxazin-2(1H)-one] | – | –
19 | > 7.00 | > 7.00 | CC(=O)N1CC=C(c2nc3ccc(-c4c(C)noc4C)c4c3n2[C@@H](c2ccccn2)CO4)CC1 [Example 110, (4S)-2-(1-acetyl-1,2,3,6-tetrahydropyridin-4-yl)-7-(3,5-dimethylisoxazol-4-yl)-4-pyridin-2-yl-4,5-dihydroimidazo[1,5,4-de][1,4]benzoxazine] | – | –
20 | > 7.00 | > 7.00 | Cc1noc(C)c1-c1cc(C2=CCN(C(=O)OC(C)(C)C)CC2)c2[nH]c(=O)n3c2c1OC[C@@H]3c1ccccn1 [Example 83, tert-butyl 4-[(4S)-7-(3,5-dimethylisoxazol-4-yl)-2-oxo-4-pyridin-2-yl-1,2,4,5-tetrahydroimidazo[1,5,4-de][1,4]benzoxazin-9-yl]-3,6-dihydropyridine-1(2H)-carboxylate 2,2,2-trifluoroacetate] | – | –
21 | 6.00 to 7.00 | 5.00 to 6.00 | Cc1noc(C)c1-c1cc(Cl)c2[nH]c(=O)n3c2c1OCC3c1ccccn1 (single isomer, unassigned) [Example 266B, 9-chloro-7-(3,5-dimethylisoxazol-4-yl)-4-pyridin-2-yl-4,5-dihydroimidazo[1,5,4-de][1,4]benzoxazin-2(1H)-one] | – | –
22 | – | – | Cc1noc(C)c1-c1cc(C2=CCNCC2)c2[nH]c(=O)n3c2c1OC[C@@H]3c1ccccn1 [Example 87, (4S)-7-(3,5-dimethylisoxazol-4-yl)-4-pyridin-2-yl-9-(1,2,3,6-tetrahydropyridin-4-yl)-4,5-dihydroimidazo[1,5,4-de][1,4]benzoxazin-2(1H)-one bis(2,2,2-trifluoroacetate)] | > 7.00 | 6.00 to 7.00
23 | > 7.00 | > 7.00 | Cc1noc(C)c1-c1ccc2[nH]c(=O)n3c2c1OCC3c1cncc(F)c1 (stereo not shown) [Example 78, 7-(3,5-dimethylisoxazol-4-yl)-4-(5-fluoropyridin-3-yl)-4,5-dihydroimidazo[1,5,4-de][1,4]benzoxazin-2(1H)-one] | – | –
24 | > 7.00 | 6.00 to 7.00 | Cc1noc(C)c1-c1ccc2[nH]c(=O)n3c2c1OCC3(C(N)=O)c1ccccn1 (stereo not shown) [Example 74, 7-(3,5-Dimethylisoxazol-4-yl)-2-oxo-4-pyridin-2-yl-1,2,4,5-tetrahydroimidazo[1,5,4-de][1,4]benzoxazine-4-carboxamide 2,2,2-trifluoroacetate] | – | –
25 | > 7.00 | – | Cc1noc(C)c1-c1ccc2nc(N3CCC(NC(=O)C(C)C)CC3)n3c2c1OCC3c1ccccn1 (stereo not shown) [Example 244] | – | –
26 | – | > 7.00 | Cc1noc(C)c1-c1ccc2nc(C3CCN(C(=O)C4CC4)C3)n3c2c1OC[C@@H]3c1ccccn1 (single isomer, unassigned; diastereomer 2) [Example 114B] | – | –

Row | Compound | pIC50 [1, 3] | pIC50 [2, 4] | pIC50 [1] | pIC50 [2]
27 | Cc1noc(C)c1-c1ccc2nc(N(C)CCO)n3c2c1OCC3c1ccccn1 (stereo not shown) [Example 185, 2-[[7-(3,5-dimethylisoxazol-4-yl)-4-pyridin-2-yl-4,5-dihydroimidazo[1,5,4-de][1,4]benzoxazin-2-yl](methyl)amino]ethanol] | – | 6.00 to 7.00 | > 7.00 | –
